Numbers after ± are expanded uncertainties.
What was measured:
[1] = refractive index (Na D-line) (dimensionless); xn = mol fraction of the nth substance listed; conditions: 100 kPa, Liquid, Standard Abbe refractometry, x2 = 0
[2] = xn = mol fraction of the nth substance listed; conditions: 100 kPa, Liquid, x2 = 0; for viscosity: Capillary tube (Ostwald / Ubbelohde) method; for mass density: Vibrating tube method
[3] = refractive index (Na D-line) (dimensionless); conditions: 101.33 kPa, Liquid, Standard Abbe refractometry
[4] = 100 kPa, Liquid; for viscosity: Capillary tube (Ostwald / Ubbelohde) method; for mass density: Vibrating tube method

SMILES	refractive index ([1]; 298.15 K)	refractive index ([1]; 308.15 K)	refractive index ([1]; 318.15 K)	viscosity ([2]; 293.15 K) [mPa·s]	mass density ([2]; 293.15 K) [kg/m3]	viscosity ([2]; 298.15 K) [mPa·s]	mass density ([2]; 298.15 K) [kg/m3]	viscosity ([2]; 303.15 K) [mPa·s]	mass density ([2]; 303.15 K) [kg/m3]	viscosity ([2]; 308.15 K) [mPa·s]	mass density ([2]; 308.15 K) [kg/m3]	viscosity ([2]; 313.15 K) [mPa·s]	mass density ([2]; 313.15 K) [kg/m3]	viscosity ([2]; 318.15 K) [mPa·s]	mass density ([2]; 318.15 K) [kg/m3]	viscosity ([2]; 323.15 K) [mPa·s]	mass density ([2]; 323.15 K) [kg/m3]	refractive index ([3]; 298.15 K)	refractive index ([3]; 308.15 K)	refractive index ([3]; 318.15 K)	further results
CCCCCCCCC [nonane] + C1CC[C@H]2CCCC[C@@H]2C1	1.4026 ± 0.0013	1.3983 ± 0.0013	1.3937 ± 0.0013	0.724 ± 0.011	717.94 ± 0.24	0.681 ± 0.011	714.11 ± 0.24	0.64 ± 0.011	710.2 ± 0.24	0.604 ± 0.011	706.29 ± 0.25	0.571 ± 0.011	702.35 ± 0.25	0.547 ± 0.011	698.4 ± 0.25	0.521 ± 0.011	694.43 ± 0.25				
CCCCCCCCC [nonane] + C1CC[C@H]2CCCC[C@H]2C1	1.4026 ± 0.0013	1.3983 ± 0.0013	1.3937 ± 0.0013	0.724 ± 0.011	717.94 ± 0.24	0.681 ± 0.011	714.11 ± 0.24	0.64 ± 0.011	710.2 ± 0.24	0.604 ± 0.011	706.29 ± 0.25	0.571 ± 0.011	702.35 ± 0.25	0.547 ± 0.011	698.4 ± 0.25	0.521 ± 0.011	694.43 ± 0.25				
C1CC[C@H]2CCCC[C@@H]2C1 [trans-decahydronaphthalene]																		1.4662 ± 0.0012	1.4618 ± 0.0012	1.4581 ± 0.0012	viscosity ([4]; 293.15 K): 2.112 ± 0.015 mPa·s; mass density ([4]; 293.15 K): 869.78 ± 0.13 kg/m3; viscosity ([4]; 298.15 K): 1.925 ± 0.015 mPa·s; mass density ([4]; 298.15 K): 866.07 ± 0.13 kg/m3; viscosity ([4]; 303.15 K): 1.769 ± 0.014 mPa·s; mass density ([4]; 303.15 K): 862.34 ± 0.14 kg/m3; viscosity ([4]; 308.15 K): 1.628 ± 0.013 mPa·s; mass density ([4]; 308.15 K): 858.61 ± 0.14 kg/m3; viscosity ([4]; 313.15 K): 1.505 ± 0.013 mPa·s; mass density ([4]; 313.15 K): 854.88 ± 0.14 kg/m3; viscosity ([4]; 318.15 K): 1.394 ± 0.013 mPa·s; mass density ([4]; 318.15 K): 851.14 ± 0.14 kg/m3; viscosity ([4]; 323.15 K): 1.295 ± 0.012 mPa·s; mass density ([4]; 323.15 K): 847.4 ± 0.14 kg/m3
CCCCCCCCCCC [undecane]																		1.4138 ± 0.0013	1.4095 ± 0.0013	1.4058 ± 0.0013	viscosity ([4]; 293.15 K): 1.17 ± 0.014 mPa·s; mass density ([4]; 293.15 K): 740.28 ± 0.32 kg/m3; viscosity ([4]; 298.15 K): 1.086 ± 0.014 mPa·s; mass density ([4]; 298.15 K): 736.63 ± 0.32 kg/m3; viscosity ([4]; 303.15 K): 1.004 ± 0.013 mPa·s; mass density ([4]; 303.15 K): 732.93 ± 0.32 kg/m3; viscosity ([4]; 308.15 K): 0.931 ± 0.013 mPa·s; mass density ([4]; 308.15 K): 729.22 ± 0.32 kg/m3; viscosity ([4]; 313.15 K): 0.862 ± 0.013 mPa·s; mass density ([4]; 313.15 K): 725.51 ± 0.32 kg/m3; viscosity ([4]; 318.15 K): 0.801 ± 0.012 mPa·s; mass density ([4]; 318.15 K): 721.78 ± 0.32 kg/m3; viscosity ([4]; 323.15 K): 0.749 ± 0.012 mPa·s; mass density ([4]; 323.15 K): 718.04 ± 0.31 kg/m3
CCCCCCCCCCC [undecane] + C1CC[C@H]2CCCC[C@@H]2C1	1.4138 ± 0.0013	1.4095 ± 0.0013	1.4058 ± 0.0013	1.17 ± 0.014	740.28 ± 0.32	1.086 ± 0.014	736.63 ± 0.32	1.004 ± 0.013	732.93 ± 0.32	0.931 ± 0.013	729.22 ± 0.32	0.862 ± 0.013	725.51 ± 0.32	0.801 ± 0.012	721.78 ± 0.32	0.749 ± 0.012	718.04 ± 0.31				
CCCCCCCCCCC [undecane] + C1CC[C@H]2CCCC[C@H]2C1	1.4138 ± 0.0013	1.4095 ± 0.0013	1.4058 ± 0.0013	1.17 ± 0.014	740.28 ± 0.32	1.086 ± 0.014	736.63 ± 0.32	1.004 ± 0.013	732.93 ± 0.32	0.931 ± 0.013	729.22 ± 0.32	0.862 ± 0.013	725.51 ± 0.32	0.801 ± 0.012	721.78 ± 0.32	0.749 ± 0.012	718.04 ± 0.31				

— the NIST ThermoML archive (doi:10.1021/je400250u)
